# Assay results taken from patent publication US20230407265A1, “COMPOSITION AND METHODS FOR 3D CULTURE OF ISLET CELLS” (CITY OF HOPE, priority 2022, published 2023).
# Non-standard residues stand in square brackets, D forms with d. Residues, ends and D or L forms follow the SMILES beside them. pGlu = O=C1CC[C@@H](C(=O)O)N1
# System: human islets
# Assay: Islet viability and morphology assessment (PI/HO or FDA, DTZ staining)
# Type: cell-based
# Settings: 4 weeks in 3D hydrogel with 100 nM gastrin
# Description: Islet cells were stained with 10 μg/mL propidium iodide (PI) (Millipore Sigma, St. Louis, MO, USA) and 10 μg/mL of Hoechst 33342 (HO) (Thermo Fisher Scientific, Waltham, MA) for 5 minutes at room temperature, washed with PBS, then placed on a 6-well plate. The images of PI/HO staining were taken under a IXDP50 Olympus fluorescent microscope with DP74 camera using a 4× objective lens (Olympus America). Viability was determined by the area of PI staining divided by the area of HO staining analyzed by CellSens software. For the experiment with gastrin culture, 0.5 μM Fluorescein diacetate (FDA) solution (Millipore Sigma) was used instead of HO to determine the viable total islets. The viability was determined by the area of PI staining divided by the total islet area analyzed by CellSens software. Islet morphology was evaluated by dithizone (DTZ) staining.
smiles,measurement,value
"CC(C)C[C@H](NC(=O)[C@H](Cc1c[nH]c2ccccc12)NC(=O)CNC(=O)[C@H](Cc1ccc(O)cc1)NC(=O)[C@H](C)NC(=O)[C@H](CCC(=O)O)NC(=O)[C@H](CCC(=O)O)NC(=O)[C@H](CCC(=O)O)NC(=O)[C@H](CCC(=O)O)NC(=O)[C@H](CCC(=O)O)NC(=O)[C@H](CC(C)C)NC(=O)[C@H](Cc1c[nH]c2ccccc12)NC(=O)[C@@H]1CCCN1C(=O)CNC(=O)[C@@H]1CCC(=O)N1)C(=O)N[C@@H](CC(=O)O)C(=O)N[C@@H](Cc1ccccc1)C(N)=O [gastrin, [Leu15]-gastrin I] ([pGlu]GPWLEEEEEAYGWLDF-NH2)",islet viability,92±6%
